In publication PMC2812926 (Journal of medicinal chemistry, 2008):

Experiments:
[1] = system: HIV-1MDR-G; assay type: cell-based; details: PHA-PBMC
[2] = system: HIV-1MDR-TM; assay type: cell-based; details: PHA-PBMC
[3] = system: MDR/C; assay type: cell-based, HIV-1; details: PHA-PBMC
[4] = system: HIV-1MDR-B; assay type: cell-based; details: PHA-PBMC
[5] = system: HIV-1MDR-JSL; assay type: cell-based; details: PHA-PBMC
[6] = system: MDR/A; assay type: cell-based, HIV-1; details: PHA-PBMC
[7] = system: HIV-1MDR-MM; assay type: cell-based; details: PHA-PBMC
[8] = system: HIV-1ERS104pre (wild-type); assay: Antiviral assay in PHA-PBMC, p24 Gag production, HIV-1ERS104pre; assay type: cell-based; details: PBMC versus MT-2 cells
[9] = target: HIV-1 protease (Human immunodeficiency virus type 1 group M subtype B, UniProt P04585); assay: HIV-1 protease enzyme inhibitory assay; assay type: biochemical

Compound | number in parentheses: fold change of IC50 versus ERS104pre (wild-type) [1] | number in parentheses: fold change of IC50 versus ERS104pre (wild-type) [2] | number in parentheses: fold change of IC50 versus ERS104pre (wild-type) [3] | number in parentheses: fold change of IC50 versus ERS104pre (wild-type) [4] | number in parentheses: fold change of IC50 versus ERS104pre (wild-type) [5] | number in parentheses: fold change of IC50 versus ERS104pre (wild-type) [6] | number in parentheses: fold change of IC50 versus ERS104pre (wild-type) [7] | potency change compared to 3i (enzyme Ki) [9] | other results
CC(C)(C)NC(=O)[C@@H]1CN(Cc2cccnc2)CCN1C[C@@H](O)C[C@@H](Cc1ccccc1)C(=O)N[C@H]1c2ccccc2C[C@H]1O.O [IDV, Indinavir] | 11 | > 38 | > 38 | > 38 | > 38 | > 38 | > 38 |  | 
COc1ccc(S(=O)(=O)N(CC(C)C)C[C@@H](O)[C@H](Cc2ccccc2)NC(=O)O[C@@H]2CCOCOC2)cc1 [Inhibitor 3d, (1S,2R)-{1-Benzyl-2-hydroxy-3-[isobutyl(4-methoxybenzenesulfonyl)amino]propyl}carbamic acid (1R)-3,5-dioxacycloheptan-1-yl ester] |  |  |  |  |  |  |  |  | factor by which values in PBMCs were greater than those with MT-2 cells [8]: about 4
COc1ccc(S(=O)(=O)N(CC(C)C)C[C@@H](O)[C@H](Cc2ccccc2)NC(=O)O[C@@H]2CCCCOC2)cc1 [Inhibitor 3e, (1S,2R)-{1-Benzyl-2-hydroxy-3-[isobutyl(4-methoxybenzenesulfonyl)amino]propyl}carbamic acid (R)-oxepan-3-yl ester] |  |  |  |  |  |  |  |  | reduction in enzymatic inhibitory potency with respect to 3d [9]: ~30 fold
COc1ccc(S(=O)(=O)N(CC(C)C)C[C@@H](O)[C@H](Cc2ccccc2)NC(=O)O[C@H]2CCCOCC2)cc1 [Inhibitor 3f, (1S,2R)-{1-Benzyl-2-hydroxy-3-[isobutyl(4-methoxybenzenesulfonyl)amino]propyl}carbamic acid (S)-oxepan-4-yl ester] |  |  |  |  |  |  |  |  | reduction in enzymatic inhibitory potency with respect to 3d [9]: ~30 fold
COc1ccc(S(=O)(=O)N(CC(C)C)C[C@@H](O)[C@H](Cc2ccccc2)NC(=O)OC2COCOC2)cc1 [Inhibitor 3h, (1S,2R)-{1-Benzyl-2-hydroxy-3-[isobutyl(4-methoxybenzenesulfonyl)amino]propyl}carbamic acid 1,3-dioxan-5-yl ester] | 50 | 10 | 27 | 38 | 55 | 2 | 5 |  | 
COc1ccc(S(=O)(=O)N(CC(C)C)C[C@@H](O)[C@H](Cc2ccccc2)NC(=O)OC2COCCOCOCCOC2)cc1 [Inhibitor 3k, (1S,2R)-{1-Benzyl-2-hydroxy-3-[isobutyl(4-methoxybenzenesulfonyl)amino]propyl}carbamic acid 3,6,8,11-tetraoxacyclododecan-1-yl ester] |  |  |  |  |  |  |  | more than 2 fold | potency enhancement compared to inhibitor 3j (enzyme Ki) ([9]; compared to 3j): 5 fold
COc1ccc(S(=O)(=O)N(CC(C)C)C[C@@H](O)[C@H](Cc2ccccc2)NC(=O)OC2COCCS(=O)(=O)CCOC2)cc1 [Inhibitor 3l, (1S,2R)-{1-Benzyl-2-hydroxy-3-[isobutyl(4-methoxybenzenesulfonyl)amino]propyl}carbamic acid 3,9-dioxa-6-thiacyclodecan-1-yl 6,6-dioxide ester] |  |  |  |  |  |  |  | 9 fold | 
COc1ccc(S(=O)(=O)N(CC(C)C)C[C@@H](O)[C@H](Cc2ccccc2)NC(=O)OC2COCCN(C)CCOC2)cc1 [Inhibitor 3m, (1S,2R)-{1-Benzyl-2-hydroxy-3-[isobutyl(4-methoxybenzenesulfonyl)amino]propyl}carbamic acid N-methyl-1,7-dioxa-4-azocyclodecan-9-yl ester] |  |  |  |  |  |  |  | no change in inhibitory activity | 
CC(C)c1nc(CN(C)C(=O)N[C@H](C(=O)N[C@@H](Cc2ccccc2)C[C@H](O)[C@H](Cc2ccccc2)NC(=O)OCc2cncs2)C(C)C)cs1 [RTV] | > 29 | > 29 | > 29 | > 29 | > 29 | > 29 | > 29 |  | 
